Measurements from patent US6395288B1, “Subversion of bacterial resistance by low solubility antibiotics” (Kent State University, priority 1998, dated 2002).

Columns and labels:
[1] = test system: MDR isotype of S. aureus (ATCC 27659); assay: Agar diffusion zone of growth inhibition, antibiotics delivered from fibrin sealant; format: cell-based, Staphylococcus aureus; conditions: in vitro, 6 mm wells filled with fibrin sealant with antibiotic, 18 h at 37° C., FIG. 2
Description: The method used was that of Barry,Am. Journal of Clinical Pathology, 53:149 (1970), incorporated herein by reference, with modifications. Briefly, antibiotic bioactivity was assessed by agar diffusion where the agar hydrogel was seeded with bacteria prior to solidification. Several 6 mm wells were cut into the agar, the plugs were removed by aspiration and the wells were filled with the fibrin sealant hydrogel containing various concentrations of low-solubility antibiotics. Cultures were incubated for 18 h at 37° C. Zones of growth inhibition—the area about the well where diffused antibiotic prevents growth of seeded bacteria—were recorded to the nearest mm and graphed in FIG. 2. The zone of inhibition required to document bacterial susceptibility to a particular concentration of antibiotic is indicated by a black horizontal bar. […] Moreover, increasing the local concentration of low solubility antibiotics released from fibrin sealant effectively overcomes S. aureus resistance in vitro.

[2] = test system: non-multi-drug resistant (NMDR) peritonitis; assay: Prophylactic protection against lethal NMDR peritonitis in mice; format: in vivo; conditions: prophylactic treatment, 500 mg/kg
[3] = Local (cellular) toxicity in vitro, fluorescein assay; conditions: FS-TET disks at solubility limit (TET-HCl 20 mg/mL, TET free base 1 mg/mL)

## [H]/N=C(/N)N[C@H]1[C@H](O)[C@@H](O)[C@H](O[C@@H]2O[C@@H](C)[C@](O)(C=O)[C@H]2O[C@@H]2O[C@@H](CO)[C@H](O)[C@@H](O)[C@@H]2NC)[C@@H](N/C(N)=N\[H])[C@@H]1O [streptomycin]
[1]
  growth inhibition (zone of growth inhibition): appeared effective in vitro

## CN(C)[C@@H]1C(O)=C(C(N)=O)C(=O)[C@@]2(O)C(O)=C3C(=O)c4c(O)cccc4[C@@](C)(O)[C@H]3C[C@@H]12 [tetracycline]
[2]
  protection against a lethal dose of NMDR peritonitis: 100%

## CN(C)[C@@H]1C(=O)C(C(N)=O)=C(O)[C@@]2(O)C(=O)C3=C(O)c4c(O)cccc4[C@@](C)(O)[C@H]3C[C@@H]12.Cl [TET-HCl]
[3]
  local (cellular) toxicity, fluorescein assay: acutely toxic
